Tests used:
[1] = pH>8; cited from earlier work
[2] = THC in breath after smoking, samples collected with a Hound Labs device and analyzed by mass spectrometry; format: in vivo, human
[3] = compared with THC; cited from earlier work

SMILES | solubility versus pH [1] | measured amount of THC in breath sample indicative of recent usage ([2]; breath sample of 0.5 liters, usage within the three hours prior to collection) | baseline breath THC, maximum ([2]; chronic or frequent smokers who have not smoked for several hours) | maximum baseline breath THC per liter ([2]; chronic users, 12 pg/5 L converted to per liter) | time THC is detected in breath after smoking ([2]; on average, 430 tests, smoking indoors or outdoors, mass spectrometry) | resistance to oxidation [3]
CCCCCc1cc(O)c2c(c1)OC(C)(C)[C@@H]1CCC(C)=C[C@@H]21 [THC, tetrahydrocannabinol] | higher solubility | 1-10 picograms (pg) | ≤ 12 pg/5 L breath | ≤ 2.4 pg/L | 2 to 3 h | –
CCCCCc1cc2c(c(O)c1C(=O)O)[C@@H]1C=C(C)CC[C@H]1C(C)(C)O2 [THCA] | – | – | – | – | – | higher resistance to oxidation

Reference: US11977086B2, “Biomarker detection from breath samples” (Hound Labs, Inc., priority 2019, dated 2024)
